Data reported in patent US20220265694A1, “COMPOSITIONS AND METHODS FOR TREATING AN INFECTION” (CMPD LICENSING, LLC, priority 2016, published 2022).

How the values were obtained:
[1] = tested on: Providencia rettgeri; assay: Expected efficacy of antibiotic agents; settings: expected efficacy against Providencia rettgeri; Gram: neg
[2] = tested on: Streptococcus pyogenes; assay: Expected efficacy of antibiotic agents; settings: expected efficacy against Streptococcus pyogenes; Gram: pos
[3] = tested on: Enterobacter aerogenes; assay: Expected efficacy of antibiotic agents; settings: expected efficacy against Enterobacter aerogenes; Gram: neg
[4] = tested on: Bartonella bacilliformis; assay: Expected efficacy of antibiotic agents; settings: expected efficacy against Bartonella bacilliformis; Gram: neg
[5] = tested on: Acinetobacter lwoffii; assay: Expected efficacy of antibiotic agents; settings: expected efficacy against Acinetobacter lwoffii; Gram: neg
[6] = tested on: Clostridium perfringens; settings: expected efficacy against Clostridium perfringens; Gram: anaer
[7] = tested on: Citrobacter freundii; assay: Expected efficacy of antibiotic agents; settings: expected efficacy against Citrobacter freundii; Gram: neg
[8] = tested on: Proteus vulgaris; assay: Expected efficacy of antibiotic agents; settings: expected efficacy against Proteus vulgaris; Gram: neg
[9] = tested on: Citrobacter diversus; assay: Expected efficacy of antibiotic agents; settings: expected efficacy against Citrobacter diversus; Gram: neg
[10] = tested on: Methicillin resistant staph aureus (MRSA); assay: Expected efficacy of antibiotic agents; settings: expected efficacy against Methicillin resistant staph aureus (MRSA); Gram: pos
[11] = tested on: Campylobacter jejuni; assay: Expected efficacy of antibiotic agents; settings: expected efficacy against Campylobacter jejuni; Gram: neg
[12] = tested on: Brucella species; settings: expected efficacy against Brucella species; Gram: neg
[13] = tested on: Klebsiella (Calymmatobacterium); assay: Expected efficacy of antibiotic agents; settings: expected efficacy against Klebsiella (Calymmatobacterium); Gram: neg
[14] = tested on: Enterobacter cloacae; assay: Expected efficacy of antibiotic agents; settings: expected efficacy against Enterobacter cloacae; Gram: neg
[15] = tested on: Escherichia coli; assay: Expected efficacy of antibiotic agents; settings: expected efficacy against Escherichia coli; Gram: neg
[16] = tested on: Chlamydia psittaci; settings: expected efficacy against Chlamydia psittaci; Gram: n/a
[17] = tested on: Bacteroides fragilis; assay: Expected efficacy of antibiotic agents; settings: expected efficacy against Bacteroides fragilis; Gram: anaer
[18] = tested on: Bordetella pertussis; assay: Expected efficacy of antibiotic agents; settings: expected efficacy against Bordetella pertussis; Gram: neg
[19] = tested on: Vibrio cholerae; assay: Expected efficacy of antibiotic agents; settings: expected efficacy against Vibrio cholerae; Gram: neg
[20] = tested on: Francisella tularensis; settings: expected efficacy against Francisella tularensis; Gram: neg
[21] = tested on: Pseudomonas aeruginosa; assay: Expected efficacy of antibiotic agents; settings: expected efficacy against Pseudomonas aeruginosa; Gram: neg
[22] = tested on: Enterococcus faecalis; assay: Expected efficacy of antibiotic agents; settings: expected efficacy against Enterococcus faecalis; Gram: pos
[23] = tested on: Neisseria meningitidis; assay: Expected efficacy of antibiotic agents; settings: expected efficacy against Neisseria meningitidis; Gram: neg
[24] = tested on: Mycoplasma pneumoniae; assay: Expected efficacy of antibiotic agents; settings: expected efficacy against Mycoplasma pneumoniae; Gram: n/a
[25] = tested on: Providencia stuartii; assay: Expected efficacy of antibiotic agents; settings: expected efficacy against Providencia stuartii; Gram: neg
[26] = tested on: Klebsiella oxytoca; assay: Expected efficacy of antibiotic agents; settings: expected efficacy against Klebsiella oxytoca; Gram: neg
[27] = tested on: Serratia marcescens; assay: Expected efficacy of antibiotic agents; settings: expected efficacy against Serratia marcescens; Gram: neg
[28] = tested on: Klebsiella pneumoniae; assay: Expected efficacy of antibiotic agents; settings: expected efficacy against Klebsiella pneumoniae; Gram: neg
[29] = tested on: Legionella pneumophila; settings: expected efficacy against Legionella pneumophila; Gram: neg
[30] = tested on: Acinetobacter baumannii; assay: Expected efficacy of antibiotic agents; settings: expected efficacy against Acinetobacter baumannii; Gram: neg
[31] = tested on: Enterobacter sakazakii; assay: Expected efficacy of antibiotic agents; settings: expected efficacy against Enterobacter sakazakii; Gram: neg
[32] = tested on: Proteus mirabilis; assay: Expected efficacy of antibiotic agents; settings: expected efficacy against Proteus mirabilis; Gram: neg
[33] = tested on: Chlamydia trachomatis; assay: Expected efficacy of antibiotic agents; settings: expected efficacy against Chlamydia trachomatis; Gram: n/a
[34] = tested on: Acinetobacter calcoaceticus; assay: Expected efficacy of antibiotic agents; settings: expected efficacy against Acinetobacter calcoaceticus; Gram: neg
[35] = tested on: Staphylococcus aureus (MSSA); assay: Expected efficacy of antibiotic agents; settings: expected efficacy against Staphylococcus aureus (MSSA); Gram: pos
[36] = tested on: Moraxella catarrhalis; assay: Expected efficacy of antibiotic agents; settings: expected efficacy against Moraxella catarrhalis; Gram: neg
[37] = tested on: Clostridium difficile; assay: Expected efficacy of antibiotic agents; settings: expected efficacy against Clostridium difficile; Gram: anaer
[38] = tested on: Enterococcus faecium; assay: Expected efficacy of antibiotic agents; settings: expected efficacy against Enterococcus faecium; Gram: pos
[39] = tested on: Chlamydia pneumoniae; assay: Expected efficacy of antibiotic agents; settings: expected efficacy against Chlamydia pneumoniae; Gram: n/a
[40] = tested on: Rickettsiae; settings: expected efficacy against Rickettsiae; Gram: neg
[41] = tested on: Pseudomonas fluorescens; assay: Expected efficacy of antibiotic agents; settings: expected efficacy against Pseudomonas fluorescens; Gram: neg
[42] = tested on: Staphylococcus epidermidis; assay: Expected efficacy of antibiotic agents; settings: expected efficacy against Staphylococcus epidermidis; Gram: pos
[43] = tested on: Haemophilus influenzae; assay: Expected efficacy of antibiotic agents; settings: expected efficacy against Haemophilus influenzae; Gram: neg
[44] = tested on: Morganella morganii; assay: Expected efficacy of antibiotic agents; settings: expected efficacy against Morganella morganii; Gram: neg
[45] = tested on: Streptococcus pneumoniae; assay: Expected efficacy of antibiotic agents; settings: expected efficacy against Streptococcus pneumoniae; Gram: pos
[46] = tested on: Corynebacterium jeikeium; assay: Expected efficacy of antibiotic agents; settings: expected efficacy against Corynebacterium jeikeium; Gram: pos
[47] = tested on: Streptococcus agalactiae; assay: Expected efficacy of antibiotic agents; settings: expected efficacy against Streptococcus agalactiae; Gram: pos
[48] = tested on: Haemophilus ducreyi; assay: Expected efficacy of antibiotic agents; settings: expected efficacy against Haemophilus ducreyi; Gram: neg
[49] = tested on: Shigella dysenteriae; assay: Expected efficacy of antibiotic agents; settings: expected efficacy against Shigella dysenteriae; Gram: neg
[50] = tested on: Shigella boydii; assay: Expected efficacy of antibiotic agents; settings: expected efficacy against Shigella boydii; Gram: neg
[51] = tested on: Shigella sonnei; assay: Expected efficacy of antibiotic agents; settings: expected efficacy against Shigella sonnei; Gram: neg
[52] = tested on: Neisseria gonorrhoeae; assay: Expected efficacy of antibiotic agents; settings: expected efficacy against Neisseria gonorrhoeae; Gram: neg
[53] = tested on: Yersinia pestis; settings: expected efficacy against Yersinia pestis; Gram: neg
[54] = tested on: Salmonella typhi; assay: Expected efficacy of antibiotic agents; settings: expected efficacy against Salmonella typhi; Gram: neg
[55] = tested on: Shigella flexneri; assay: Expected efficacy of antibiotic agents; settings: expected efficacy against Shigella flexneri; Gram: neg
[56] = tested on: Corynebacterium urealyticum; assay: Expected efficacy of antibiotic agents; settings: expected efficacy against Corynebacterium urealyticum; Gram: pos
[57] = tested on: Haemophilus parainfluenzae; assay: Expected efficacy of antibiotic agents; settings: expected efficacy against Haemophilus parainfluenzae; Gram: neg
[58] = tested on: Candida species; assay: Expected efficacy of antifungal agents; settings: expected efficacy against Candida species

For `CC[C@H]1OC(=O)[C@H](C)[C@@H](O[C@H]2C[C@@](C)(OC)[C@@H](O)[C@H](C)O2)[C@H](C)[C@@H](O[C@@H]2O[C@H](C)C[C@H](N(C)C)[C@H]2O)[C@](C)(O)C[C@@H](C)CN(C)[C@H](C)[C@@H](O)[C@]1(C)O` [Azithromycin], the Efficacy [1] was “no”, the Efficacy [2] was “yes” and the Efficacy [3] was “no”. For the same compound, the Efficacy [4] was “yes”, the Efficacy [5] was “no” and the Efficacy [6] was “no”. For the same compound, the Efficacy [7] was “no”, the Efficacy [8] was “no” and the Efficacy [9] was “no”. The Efficacy [10] was “no”, the Efficacy [11] was “yes” and the Efficacy [12] was “no”. For the same compound, the Efficacy [13] was “no”, the Efficacy [14] was “no” and the Efficacy [15] was “no”. The Efficacy [16] was “yes”, the Efficacy [17] was “no” and the Efficacy [18] was “yes”. The Efficacy [19] was “yes”, the Efficacy [20] was “no” and the Efficacy [21] was “no”. For the same compound, the Efficacy [22] was “no”, the Efficacy [23] was “yes” and the Efficacy [24] was “yes”. The Efficacy [25] was “no”, the Efficacy [26] was “no” and the Efficacy [27] was “no”. The Efficacy [28] was “no”, the Efficacy [29] was “yes” and the Efficacy [30] was “no”. For the same compound, the Efficacy [31] was “no”, the Efficacy [32] was “no” and the Efficacy [33] was “yes”. For the same compound, the Efficacy [34] was “no”, the Efficacy [35] was “yes” and the Efficacy [36] was “yes”. The Efficacy [37] was “no”, the Efficacy [38] was “no” and the Efficacy [39] was “yes”. For the same compound, the Efficacy [40] was “yes”, the Efficacy [41] was “no” and the Efficacy [42] was “yes”. The Efficacy [43] was “yes”, the Efficacy [44] was “no” and the Efficacy [45] was “yes”. The Efficacy [46] was “no” and the Efficacy [47] was “yes”.
For `C/C(=C\C(=O)OCCCCCCCCC(=O)O)C[C@@H]1OC[C@H](C[C@@H]2O[C@H]2[C@@H](C)[C@H](C)O)[C@@H](O)[C@H]1O` [Bactroban], the Efficacy [1] was “no”, the Efficacy [2] was “yes” and the Efficacy [48] was “no”. The Efficacy [3] was “no”, the Efficacy [4] was “no” and the Efficacy [5] was “no”. For the same compound, the Efficacy [6] was “no”, the Efficacy [7] was “no” and the Efficacy [49] was “no”. For the same compound, the Efficacy [8] was “no”, the Efficacy [9] was “no” and the Efficacy [50] was “no”. For the same compound, the Efficacy [51] was “no”, the Efficacy [10] was “yes” and the Efficacy [11] was “no”. The Efficacy [12] was “no”, the Efficacy [13] was “no” and the Efficacy [14] was “no”. The Efficacy [15] was “no”, the Efficacy [18] was “no” and the Efficacy [19] was “no”. For the same compound, the Efficacy [20] was “no”, the Efficacy [21] was “no” and the Efficacy [23] was “no”. For the same compound, the Efficacy [52] was “no”, the Efficacy [53] was “no” and the Efficacy [25] was “no”. For the same compound, the Efficacy [26] was “no”, the Efficacy [27] was “no” and the Efficacy [28] was “no”. For the same compound, the Efficacy [29] was “no”, the Efficacy [54] was “no” and the Efficacy [30] was “no”. For the same compound, the Efficacy [31] was “no”, the Efficacy [32] was “no” and the Efficacy [34] was “no”. The Efficacy [55] was “no”, the Efficacy [35] was “yes” and the Efficacy [36] was “no”. The Efficacy [40] was “no”, the Efficacy [41] was “no” and the Efficacy [43] was “no”. The Efficacy [44] was “no”, the Efficacy [56] was “no” and the Efficacy [46] was “no”.
In the case of `O=C(O)c1cn(C2CC2)c2cc(N3CCNCC3)c(F)cc2c1=O` [Ciprofloxacin], the Efficacy [1] is reported as “yes”, the Efficacy [3] is reported as “yes” and the Efficacy [4] is reported as “yes”. For the same compound, the Efficacy [7] was “yes”, the Efficacy [49] was “yes” and the Efficacy [8] was “yes”. The Efficacy [9] was “yes”, the Efficacy [50] was “yes” and the Efficacy [51] was “yes”. The Efficacy [10] was “no”, the Efficacy [11] was “yes” and the Efficacy [15] was “yes”. For the same compound, the Efficacy [17] was “no”, the Efficacy [19] was “yes” and the Efficacy [20] was “yes”. The Efficacy [21] was “yes”, the Efficacy [57] was “yes” and the Efficacy [23] was “yes”. For the same compound, the Efficacy [52] was “yes”, the Efficacy [53] was “yes” and the Efficacy [25] was “yes”. For the same compound, the Efficacy [26] was “yes”, the Efficacy [27] was “yes” and the Efficacy [28] was “yes”. The Efficacy [29] was “yes”, the Efficacy [54] was “yes” and the Efficacy [32] was “yes”. For the same compound, the Efficacy [55] was “yes”, the Efficacy [36] was “yes” and the Efficacy [38] was “no”. For the same compound, the Efficacy [39] was “yes”, the Efficacy [40] was “yes” and the Efficacy [41] was “yes”. For the same compound, the Efficacy [42] was “yes”, the Efficacy [43] was “yes” and the Efficacy [44] was “yes”. For the same compound, the Efficacy [46] was “no”.
For `C[C@@H]1[C@H](O)[C@@H](C)/C=C/C=C/CC/C=C/C=C/C=C/C=C/C(O[C@H]2O[C@H](C)[C@@H](O)[C@H](N)[C@@H]2O)CC2O[C@](O)(CC(O)C(O)CCC(O)CC(O)CC(O)CC(=O)O[C@H]1C)CC(O)C2C(=O)O` (stereo partly shown) [Nystatin], the Efficacy [58] was “yes”.
